{
  "source": "patent US10399932B2",
  "about": "“Inhibitors of indoleamine-2,3-dioxygenase for the treatment of cancer” (BRISTOL-MYERS SQUIBB COMPANY, priority 2015, dated 2019)",
  "data": [
    {"target": "human IDO1 (Homo sapiens, UniProt P14902)", "sequence (P14902 whole entry)": "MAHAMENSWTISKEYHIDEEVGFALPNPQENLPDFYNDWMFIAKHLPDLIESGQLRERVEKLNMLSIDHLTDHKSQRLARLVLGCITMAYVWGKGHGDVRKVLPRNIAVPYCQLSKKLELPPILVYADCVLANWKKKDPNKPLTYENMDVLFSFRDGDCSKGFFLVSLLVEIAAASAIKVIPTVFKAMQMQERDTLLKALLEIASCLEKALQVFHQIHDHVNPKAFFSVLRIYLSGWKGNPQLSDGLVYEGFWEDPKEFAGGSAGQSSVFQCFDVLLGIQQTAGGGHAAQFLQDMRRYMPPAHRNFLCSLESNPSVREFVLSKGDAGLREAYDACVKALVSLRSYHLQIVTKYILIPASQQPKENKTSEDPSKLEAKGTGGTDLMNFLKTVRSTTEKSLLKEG", "experiment": "Assessment of human IDO-1 inhibitory activity in Hela cells (Interferon-gamma activated, Ehrlich reagent, absorbance at 490 nm)", "type": "cell-based", "set-up": "endogenous in cells; host or cells: HeLa cells stimulated with interferon-gamma", "conditions": "18 hours", "procedure": "Exemplary compounds were tested for inhibition of IDO activity.\nHeLa cells were seeded at 20,000 cells per 30 µL per well with RPMI/phenol red free media containing 10% FBS in a 384-well tissue culture plate (black with clear bottoms). 50 nL of compound was added to cells and incubated at 37° C. for one hour. 20 μL of the recombinant human Interferon-gamma (R&D System, Cat. #285-IF, at final concentration of 10 ng/ml) or recombinant murine Interferon-gamma (PEPROTECH® Inc., Cat. #315-05, final concentration of 5 ng/ml) was added to activate IDO signaling. The cells were incubated for 18 hours in 37° C. incubator with 5% CO2.\nCompound treatment was stopped by adding 5 μl trichloroacetic acid to a final concentration of 3%. Subsequently, the cell plate was further incubated at 50° C. for 30 minute. An equal volume supernatant (20 μL) and 2% (w/v) Ehrlich reagent (4-dimethylaminobenzaldehyde) in glacial acetic acid were mixed in a new clear bottom 384-well plate. This plate was incubated at room temperature for 30 minutes. Absorbance at 490 nm was measured on Envision plate reader.\nCompound IC50 values were calculated using counts from unstimulated (no INF-gamma treatment) wells as 100% inhibition. INF-gamma treatment without compound treatment as 0% inhibition.", "units": {"IC50": "nM"}, "values": [
      {"molecule": "CCOc1ncc(Nc2cc(C(CC)CC(=O)O)ccc2N(CC)C2CCCOC2)cn1", "note": "(single isomer, unassigned) [Example 66, 3-(3-((2-ethoxypyrimidin-5-yl)amino)-4-(ethyl(tetrahydro-2H-pyran-3-yl)amino)phenyl)pentanoic acid]", "IC50": "< 5"},
      {"molecule": "CCOc1ncc(Nc2cc(C(CC)CC(=O)O)cc(F)c2N(CC)C2CCOCC2)cn1", "note": "(single isomer, unassigned) [Example 139, 3-(3-((2-ethoxypyrimidin-5-yl)amino)-4-(ethyl (tetrahydro-2H-pyran-4-yl)amino)-5-fluorophenyl)pentanoic acid]", "IC50": "< 5"},
      {"molecule": "CCN(c1ccc([C@H](COC)CC(=O)O)cc1Nc1cccc(OC(F)(F)C(F)F)c1)C1CCOCC1", "note": "[Example 398, (R)-3-(4-(ethyl(tetrahydro-2H-pyran-4-yl)amino)-3-((3-(1,1,2,2-tetrafluoroethoxy)phenyl)amino)phenyl)-4-methoxybutanoic acid]", "IC50": "< 5"},
      {"molecule": "COCC(CC(=O)O)c1ccc(N(C)C2CCOCC2)c(Nc2ccc(C#N)cc2)c1", "note": "(single isomer, unassigned) [Example 880, 3-(3-((4-Cyanophenyl)amino)-4-(methyl(tetrahydro-2H-pyran-4-yl)amino)phenyl)-4-methoxybutanoic acid]", "IC50": "< 50"},
      {"molecule": "(S)-3-(4-(ethyl(tetrahydro-2H-pyran-4-yl)amino)-3-((2-(tetrahydro-2H-pyran-4-yl)pyrimidin-5-yl)amino)phenyl)-4-methoxybutanoic acid [Example 366]", "IC50": "> 50"},
      {"molecule": "3-(3-((4-cyanophenyl)amino)-4-(ethyl (tetrahydro-2H-pyran-4-yl)amino) phenyl)-3-methylpentanoic acid [Example 27]", "IC50": "< 5"},
      {"molecule": "(R)-3-(4-((1,1-dioxidotetrahydro-2H-thiopyran-4-yl)(ethyl)amino)-3-((2-ethoxypyrimidin-5-yl)amino)phenyl)-4-isopropoxybutanoic acid [Example 333]", "IC50": "> 50"},
      {"molecule": "CCC(CC(=O)O)c1ccc(N(CC)C2CCOC2)c(NC(=O)Nc2ccc(Cl)cc2F)c1", "note": "(single isomer, unassigned) [948 D2]", "IC50": "< 50"},
      {"molecule": "CCC(CC(=O)O)c1cc(Nc2cnc(OCC3CC3)nc2)c(N(CC)C2CCOCC2)cc1F", "note": "(single isomer, unassigned) [Example 863, 3-(5-((2-(cyclopropylmethoxy)pyrimidin-5-yl)amino)-4-(ethyl(tetrahydro-2H-pyran-4-yl)amino)-2-fluorophenyl) pentanoic acid]", "IC50": "< 5"},
      {"molecule": "COCC(CC(=O)O)c1ccc(N(C)C2CCOCC2)c(Nc2ccc(C#N)cc2F)c1", "note": "(single isomer, unassigned) [Example 883, 3-(3-((4-cyano-2-fluorophenyl)amino)-4-(methyl(tetrahydro-2H-pyran-4-yl)amino)phenyl)-4-methoxybutanoic acid]", "IC50": "< 50"},
      {"molecule": "CCN(c1ccc(C(CC(=O)O)C2CC2)cc1Nc1cnc(OC)nc1)C1CCOCC1", "note": "(single isomer, unassigned) [Example 38, 3-cyclopropyl-3-(4-(ethyl(tetrahydro-2H-pyran-4-yl)amino)-3-((2-methoxypyrimidin-5-yl)amino)phenyl) propanoic acid]", "IC50": "< 50"},
      {"molecule": "3-(5-((4-chlorophenyl) amino)-4-(ethyl(tetrahydro- 2H-pyran-4-yl)amino)-2- fluorophenyl)-4- methoxybutanoic acid [Example 852]", "IC50": "< 50"},
      {"molecule": "CCOc1ncc(Nc2cc([C@H](COC)CC(=O)O)ccc2N2CCOCC2CC)cn1", "note": "(single isomer, unassigned) [Example 1307]", "IC50": "> 50"},
      {"molecule": "CCOc1ncc(Nc2cc(C(CC)CC(=O)O)ccc2N(C)C2CCOCC2)cn1", "note": "(single isomer, unassigned) [Example 872, 3-(3-((2-ethoxypyrimidin-5-yl)amino)-4-(methyl (tetrahydro-2H-pyran-4-yl)amino)phenyl)pentanoic acid]", "IC50": "< 50"},
      {"molecule": "COCC(CC(=O)O)c1ccc(N2CCOC(C)C2)c(Nc2ccc(C#N)cc2)c1", "note": "(single isomer, unassigned) [Example 1313]", "IC50": "> 50"},
      {"molecule": "CCC(CC(=O)O)c1ccc(N(C)C2CCOCC2)c(Nc2ccc(Cl)cc2)c1", "note": "(single isomer, unassigned) [Example 937, 3-(3-((4-chlorophenyl)amino)-4-(methyl(tetrahydro-2H-pyran-4-yl)amino)phenyl) pentanoic acid]", "IC50": "< 5"},
      {"molecule": "CCC1COCCN1c1ccc([C@@H](COC)CC(=O)O)cc1Nc1ccc(C#N)cn1", "note": "(single isomer, unassigned) [Example 1297]", "IC50": "> 50"},
      {"molecule": "CCN(c1ccc(C(COC)CC(=O)O)cc1Nc1ccc(C#N)cc1)C1CCS(=O)(=O)CC1", "note": "(single isomer, unassigned) [Example 169, 3-(3-((4-cyanophenyl)amino)-4-((1,1-dioxidotetrahydro-2H-thiopyran-4-yl)(ethyl)amino)phenyl)-4-methoxybutanoic acid]", "IC50": "> 50"},
      {"molecule": "CCN(c1c(F)cc(C(COC)CC(=O)O)cc1NC(=O)Nc1ccc(Cl)cc1F)C1CCOCC1", "note": "(single isomer, unassigned) [Example 917, 3-(3-(3-(4-Chloro-2-fluorophenyl)ureido)-4-(ethyl(tetrahydro-2H-pyran-4-yl)amino)-5-fluorophenyl)-4-methoxybutanoic acid]", "IC50": "> 50"},
      {"molecule": "CCOc1ncc(Nc2cc(C(CC(=O)O)C3CC3)ccc2N2C[C@@H](C)O[C@@H](C)C2)cn1", "note": "(stereo partly drawn) [Example 250, 3-cyclopropyl-3-(4-((2R,6S)-2,6-dimethylmorpholino)-3-((2-ethoxypyrimidin-5-yl)amino)phenyl) propanoic acid]", "IC50": "> 50"},
      {"molecule": "CCOc1ncc(Nc2cc(C(COC)CC(=O)O)ccc2N2CCOC[C@H]2C(C)C)cn1", "note": "(single isomer, unassigned) [Example 938]", "IC50": "> 50"},
      {"molecule": "(S)-3-(3-((4-chlorophenyl)amino)-4-((1,1-dioxidotetrahydro-2H-thiopyran-4-yl)(ethyl)amino)phenyl)-4-isopropoxybutanoic acid [Example 325]", "IC50": "< 5"},
      {"molecule": "COCC(CC(=O)O)c1ccc(NC2CCOCC2)c(Nc2ccc(C#N)cc2)c1", "note": "(single isomer, unassigned) [Example 928 E2, 3-(3-((4-Cyanophenyl)amino)-4-((tetrahydro-2H-pyran-4-yl)amino)phenyl)-4-methoxybutanoic acid]", "IC50": "> 50"},
      {"molecule": "CCN(c1ccc(C(C)CC(=O)O)cc1Nc1cnc(OC(C)C)nc1)C1CCOCC1", "note": "(single isomer, unassigned) [Example 635, 3-(4-(ethyl(tetrahydro-2H-pyran-4-yl)amino)-3-((2-isopropoxypyrimidin-5-yl)amino)phenyl)butanoic acid]", "IC50": "> 50"},
      {"molecule": "C[C@@H]1CN(c2ccc(C(CC(=O)O)C3CC3)cc2NC(=O)Nc2ccc(Cl)cc2F)C[C@H](C)O1", "note": "(single isomer, unassigned) [Example 253]", "IC50": "> 50"},
      {"molecule": "CCCN(c1ccc(C(CC)CC(=O)O)cc1Nc1cnc(OCC)nc1)C1CCS(=O)(=O)CC1", "note": "(single isomer, unassigned) [Example 13 Enantiomer 2, 3-(4-((1,1-Dioxidotetrahydro-2h-thiopyran-4-yl)(propyl)amino)-3-((2-ethoxypyrimidin-5-yl)amino)phenyl)pentanoic acid]", "IC50": "< 50"},
      {"molecule": "CCCN(c1ccc(C(CC)CC(=O)O)cc1NC(=O)Nc1ccc(C)cc1)C1CCS(=O)(=O)CC1", "note": "(single isomer, unassigned) [Example 14 Enantiomer 2, 3-(4-((1,1-Dioxidotetrahydro-2h-thiopyran-4-yl)(propyl)amino)-3-(3-(p-tolyl)ureido)phenyl)pentanoic acid]", "IC50": "> 50"},
      {"molecule": "CCOc1ncc(Nc2cc(C(CC)CC(=O)O)c(F)cc2N(CC)C2CCOCC2)cn1", "note": "(single isomer, unassigned) [Example 865, 3-(5-((2-ethoxypyrimidin-5-yl)amino)-4-(ethyl (tetrahydro-2H-pyran-4-yl)amino)-2-fluorophenyl) pentanoic acid]", "IC50": "< 5"},
      {"molecule": "(R)-3-(4-((1,1-dioxidotetrahydro-2H-thiopyran-4-yl)(ethyl)amino)-3-((4-fluorophenyl)amino)phenyl)-4-isopropoxybutanoic acid [Example 331]", "IC50": "< 50"},
      {"molecule": "CCC1COCCN1c1ccc([C@H](COC)CC(=O)O)cc1Nc1ccc(Cl)cc1", "note": "(single isomer, unassigned) [Example 1308]", "IC50": "< 50"},
      {"molecule": "CCOc1ncc(Nc2cc(C(CC)CC(=O)O)ccc2N(CCOC)C2CCOCC2)cn1", "note": "(single isomer, unassigned) [Example 1263, 3-(3-((2-ethoxypyrimidin-5-yl)amino)-4-((2-methoxyethyl)(tetrahydro-2H-pyran-4-yl)amino)phenyl)pentanoic acid]", "IC50": "< 50"},
      {"molecule": "COCC(CC(=O)O)c1cc(F)c(N(CC(C)C)CC(C)C)c(Nc2ccc(Cl)cc2)c1", "note": "(single isomer, unassigned) [Example 921, 3-(3-((4-Chlorophenyl)amino)-4-(diisobutylamino)-5-fluorophenyl)-4-methoxybutanoic acid]", "IC50": "< 5"},
      {"molecule": "COCC(CC(=O)O)c1ccc(N2CCOC[C@@H]2C(C)C)c(NC(=O)Nc2ccc(C#N)cc2)c1", "note": "(single isomer, unassigned) [Example 936]", "IC50": "> 50"},
      {"molecule": "CCC(CC(=O)O)c1cc(F)c(N(CC)C2CCOCC2)c(Nc2ccc(Cl)cc2)c1", "note": "(single isomer, unassigned) [Example 144, 3-(3-((4-chlorophenyl)amino)-4-(ethyl (tetrahydro-2H-pyran-4-yl)amino)-5-fluorophenyl)pentanoic acid]", "IC50": "< 5"}
    ]}
  ]
}
